According to patent publication US5593984A, “Cephalosporin derivatives” (Yuhan Corporation, priority 1992, dated 1997):
In brackets after ≈: the same amount, converted by molar mass.

Assays:
Type in all cases: cell-based
Staph. aureus Smith = assay: MIC by agar dilution, Staph. aureus Smith; settings: Staphylococcus aureus, 17 h, Mueller-Hinton agar, read-out: Minimal Inhibitory Concentration (MIC)
Description: (§1) These MIC values were determined by agar dilution method: that is, two-fold dilutions of each of the test compounds were made and dispersed in a Mueller-Hinton agar medium; standard test strain which had the 10^6 CFU (Colony Forming Unit) per ml was inoculated on the medium with microplanter (Toyo, Japan), and incubated at 35°-37° C. for 17±1 hours. The structures of Ceftazidime (CAZ) and Cefotaxime (CTX) which are used as control compounds are as follows: [drawing 12]

Ent. aerogenes IFO 12979 = assay: MIC by agar dilution, Ent. aerogenes IFO 12979; settings: Klebsiella aerogenes, IFO12979, 17 h, Mueller-Hinton agar, read-out: Minimal Inhibitory Concentration (MIC)
Description: as §1

Staph. aureus C-57 = assay: MIC by agar dilution, Staph. aureus C-57; settings: Staphylococcus aureus, C57, 17 h, Mueller-Hinton agar, read-out: Minimal Inhibitory Concentration (MIC)
Description: as §1

Prov. stuartii IFO 12930 = assay: MIC by agar dilution, Prov. stuartii IFO 12930; settings: Providencia stuartii, IFO12930, 17 h, Mueller-Hinton agar, read-out: Minimal Inhibitory Concentration (MIC)
Description: as §1

[1] = system: Ps. aeruginosa NCTC 10490; assay: MIC by agar dilution, Ps. aeruginosa NCTC 10490; settings: Pseudomonas aeruginosa, NCTC10490, 17 h, Mueller-Hinton agar, read-out: Minimal Inhibitory Concentration (MIC)
Description: as §1

E. coli DY-1 = assay: MIC by agar dilution, E. coli DY-1; settings: Escherichia coli, DY1, 17 h; E. coli DY-1; agar dilution, Mueller-Hinton agar; read-out: Minimal Inhibitory Concentration (MIC)
Description: as §1

E. coli NIHJ JC-2 = assay: MIC by agar dilution, E. coli NIHJ JC-2; settings: Escherichia coli, NIHJJC2, 17 h; E. coli NIHJ JC-2; agar dilution, Mueller-Hinton agar; read-out: Minimal Inhibitory Concentration (MIC)
Description: as §1

Staph. aureus C-5113 = assay: MIC by agar dilution, Staph. aureus C-5113; settings: Staphylococcus aureus, C5113, 17 h, Mueller-Hinton agar, read-out: Minimal Inhibitory Concentration (MIC)
Description: as §1

Ps. aeruginosa DY-2 = assay: MIC by agar dilution, Ps. aeruginosa DY-2; settings: Pseudomonas aeruginosa, DY2, 17 h; Ps. aeruginosa DY-2; agar dilution, Mueller-Hinton agar; read-out: Minimal Inhibitory Concentration (MIC)
Description: as §1

M. morganii DY-1 = assay: MIC by agar dilution, M. morganii DY-1; settings: Morganella morganii, DY1, 17 h; M. morganii DY-1; agar dilution, Mueller-Hinton agar; read-out: Minimal Inhibitory Concentration (MIC)
Description: as §1

Staph. aureus ATCC 6538P = assay: MIC by agar dilution, Staph. aureus ATCC 6538P; settings: Staphylococcus aureus, ATCC6538P, 17 h; Staph. aureus ATCC 6538P; agar dilution, Mueller-Hinton agar; read-out: Minimal Inhibitory Concentration (MIC)
Description: as §1

Ent. cloacae IFO 13535 = assay: MIC by agar dilution, Ent. cloacae IFO 13535; settings: Enterobacter cloacae, IFO13535, 17 h; Ent. cloacae IFO 13535; agar dilution, Mueller-Hinton agar; read-out: Minimal Inhibitory Concentration (MIC)
Description: as §1

K. pneumoniae NCTC 9632 = assay: MIC by agar dilution, K. pneumoniae NCTC 9632; settings: Klebsiella pneumoniae, NCTC9632, 17 h; K. pneumoniae NCTC 9632; agar dilution, Mueller-Hinton agar; read-out: Minimal Inhibitory Concentration (MIC)
Description: as §1

[2] = system: Ps. aeruginosa ATCC 10145; assay: MIC by agar dilution, Ps. aeruginosa ATCC 10145; settings: Pseudomonas aeruginosa, ATCC10145, 17 h, Mueller-Hinton agar, read-out: Minimal Inhibitory Concentration (MIC)
Description: as §1

P. vulgaris NCTC 8313 = assay: MIC by agar dilution, P. vulgaris NCTC 8313; settings: Proteus vulgaris, NCTC8313, 17 h; P. vulgaris NCTC 8313; agar dilution, Mueller-Hinton agar; read-out: Minimal Inhibitory Concentration (MIC)
Description: as §1

Staph. aureus C-5216 = assay: MIC by agar dilution, Staph. aureus C-5216; settings: Staphylococcus aureus, C5216, 17 h, Mueller-Hinton agar, read-out: Minimal Inhibitory Concentration (MIC)
Description: as §1

B. subtilis ATCC 6633 = assay: MIC by agar dilution, B. subtilis ATCC 6633; settings: Bacillus subtilis, ATCC6633, 17 h; B. subtilis ATCC 6633; agar dilution, Mueller-Hinton agar; read-out: Minimal Inhibitory Concentration (MIC)
Description: as §1

[3] = system: Ser. marcescens IFO 12648; assay: MIC by agar dilution, Ser. marcescens IFO 12648; settings: Serratia marcescens, IFO12648, 17 h; Ser. marcescens IFO 12648; agar dilution, Mueller-Hinton agar; read-out: Minimal Inhibitory Concentration (MIC)
Description: as §1

[4] = system: S. epidermidis ATCC 12228; assay: MIC by agar dilution, S. epidermidis ATCC 12228; settings: Staphylococcus epidermidis, ATCC12228, 17 h; S. epidermidis ATCC 12228; agar dilution, Mueller-Hinton agar; read-out: Minimal Inhibitory Concentration (MIC)
Description: as §1

E. coli No. 29 = assay: MIC by agar dilution, E. coli No. 29; settings: Escherichia coli, 17 h; E. coli No. 29; agar dilution, Mueller-Hinton agar; read-out: Minimal Inhibitory Concentration (MIC)
Description: as §1

Compound | MIC (Staph. aureus Smith) | MIC (Ent. aerogenes IFO 12979) | MIC (Staph. aureus C-57) | MIC (Prov. stuartii IFO 12930) | MIC [1] | MIC (E. coli DY-1) | MIC (E. coli NIHJ JC-2) | MIC (Staph. aureus C-5113) | MIC (Ps. aeruginosa DY-2) | MIC (M. morganii DY-1) | MIC (Staph. aureus ATCC 6538P) | MIC (Ent. cloacae IFO 13535) | MIC (K. pneumoniae NCTC 9632) | MIC [2] | MIC (P. vulgaris NCTC 8313) | MIC (Staph. aureus C-5216) | MIC (B. subtilis ATCC 6633) | MIC [3] | MIC [4] | MIC (E. coli No. 29)
CON=C(C(=O)NC1C(=O)N2C(C(=O)[O-])=C(C[n+]3ccn4cccc4c3)CSC12)c1csc(N)n1 (stereo not drawn) [Ex. 1-1, 7-β-[(Z)-2-(2-aminothiazol-4-yl)2-methoxyiminoacetamido]-3-(pyrrolo[1,2a]pyrazinium-2-yl)methyl-3-cephem-4-carboxylate] | 0.39 µg/mL (≈ 0.759 µM) | ≤ 0.006 µg/mL | 25 µg/mL (≈ 48.7 µM) | ≤ 0.006 µg/mL | 0.1 µg/mL (≈ 0.195 µM) | ≤ 0.006 µg/mL | ≤ 0.006 µg/mL | 0.78 µg/mL (≈ 1.52 µM) | 1.56 µg/mL (≈ 3.04 µM) | ≤ 0.006 µg/mL | 0.1 µg/mL (≈ 0.195 µM) | 0.05 µg/mL (≈ 0.0974 µM) | ≤ 0.006 µg/mL | 0.39 µg/mL (≈ 0.759 µM) | ≤ 0.006 µg/mL | 0.78 µg/mL (≈ 1.52 µM) | 0.1 µg/mL (≈ 0.195 µM) | ≤ 0.006 µg/mL | 0.025 µg/mL (≈ 0.0487 µM) | ≤ 0.006 µg/mL
CC(C)(ON=C(C(=O)NC1C(=O)N2C(C(=O)[O-])=C(C[n+]3ccn4cccc4c3)CSC12)c1csc(N)n1)C(=O)O (stereo not drawn) [Ex. 2, 7-β-[(Z)-2-(2-aminothiazol-4-yl)-2-(2-carboxyprop-2-oxyimino)acetamido]-3-(pyrrolo[1,2-a]pyrazinium-2-yl)methyl-3-cephem-4-carboxylate] | 12.5 µg/mL (≈ 21.3 µM) | 0.025 µg/mL (≈ 0.0427 µM) | 100 µg/mL (≈ 171 µM) | 0.025 µg/mL (≈ 0.0427 µM) | 0.39 µg/mL (≈ 0.666 µM) | 0.05 µg/mL (≈ 0.0854 µM) | 0.2 µg/mL (≈ 0.342 µM) | 25 µg/mL (≈ 42.7 µM) | 6.25 µg/mL (≈ 10.7 µM) | 0.05 µg/mL (≈ 0.0854 µM) | 3.13 µg/mL (≈ 5.34 µM) | 3.13 µg/mL (≈ 5.34 µM) | 0.2 µg/mL (≈ 0.342 µM) | 0.78 µg/mL (≈ 1.33 µM) | ≤ 0.006 µg/mL | 12.5 µg/mL (≈ 21.3 µM) | 3.13 µg/mL (≈ 5.34 µM) | 0.1 µg/mL (≈ 0.171 µM) | 1.56 µg/mL (≈ 2.66 µM) | 0.1 µg/mL (≈ 0.171 µM)
CCON=C(C(=O)NC1C(=O)N2C(C(=O)[O-])=C(C[n+]3ccn4cccc4c3)CSC12)c1csc(N)n1 (stereo not drawn) [Ex. 3, 7-β-[(Z)-2-(2-aminothiazol-4-yl)-2-ethoxyiminoacetamido]-3-(pyrrolo[1,2-a]pyrazinium-2-yl)methyl-3-cephem-4-carboxylate] | 0.39 µg/mL (≈ 0.739 µM) | 0.012 µg/mL (≈ 0.0227 µM) | 6.25 µg/mL (≈ 11.8 µM) | 0.012 µg/mL (≈ 0.0227 µM) | 0.2 µg/mL (≈ 0.379 µM) | ≤ 0.006 µg/mL | 0.025 µg/mL (≈ 0.0474 µM) | 0.39 µg/mL (≈ 0.739 µM) | 0.78 µg/mL (≈ 1.48 µM) | ≤ 0.006 µg/mL | 0.1 µg/mL (≈ 0.19 µM) | 0.2 µg/mL (≈ 0.379 µM) | ≤ 0.006 µg/mL | 0.2 µg/mL (≈ 0.379 µM) | ≤ 0.006 µg/mL | 0.39 µg/mL (≈ 0.739 µM) | 0.1 µg/mL (≈ 0.19 µM) | ≤ 0.006 µg/mL | 0.025 µg/mL (≈ 0.0474 µM) | ≤ 0.006 µg/mL
C#CCON=C(C(=O)NC1C(=O)N2C(C(=O)[O-])=C(C[n+]3ccn4cccc4c3)CSC12)c1csc(N)n1 (stereo not drawn) [Ex. 4, 7-β-[(Z)-2-(2-aminothiazol-4-yl)-2-(propyn-1-oxyimino)acetamido]-3-(pyrrolo[1,2-a]pyrazinium-2-yl)methyl-3-cephem-4-carboxylate] | 0.39 µg/mL (≈ 0.725 µM) | 0.012 µg/mL (≈ 0.0223 µM) | 25 µg/mL (≈ 46.5 µM) | 0.05 µg/mL (≈ 0.093 µM) | 0.78 µg/mL (≈ 1.45 µM) | ≤ 0.006 µg/mL | 0.39 µg/mL (≈ 0.725 µM) | 0.39 µg/mL (≈ 0.725 µM) | 6.25 µg/mL (≈ 11.6 µM) | 0.05 µg/mL (≈ 0.093 µM) | 0.2 µg/mL (≈ 0.372 µM) | 0.78 µg/mL (≈ 1.45 µM) | 0.05 µg/mL (≈ 0.093 µM) | 1.56 µg/mL (≈ 2.9 µM) | 0.012 µg/mL (≈ 0.0223 µM) | 0.78 µg/mL (≈ 1.45 µM) | 0.78 µg/mL (≈ 1.45 µM) | 0.1 µg/mL (≈ 0.186 µM) | 0.1 µg/mL (≈ 0.186 µM) | 0.012 µg/mL (≈ 0.0223 µM)
